Experimental data: patent US20240325398A1, “COMBINATION THERAPIES” (Infinity Pharmaceuticals, Inc., priority 2014, published 2024)

How the values were obtained:
HH = experiment: Combination study, ATPLite 72 h, dose matrix (Synergy Score, CI50); format: cell-based; settings: combination with Compound 1
Protocol: (§1) The method is described as follows.
(§2) Additive effect is CI=1.0. […] Antagonistic effect is CI>1.0.
The Synergy Score is calculated as: […]

SUDHL6 = experiment: Combination study of Example 1 (data not shown); format: cell-based; settings: combination with Compound 1, SUDHL6 cell line
Excerpt: as §1, §2

OCI-Ly3 = experiment: Combination study, ATPLite 72 h, dose matrix (Synergy Score, CI50)
TMD8 = experiment: as above; settings: TMD8
OCI-Ly7 = experiment: as above
Farage = experiment: as above; settings: Farage
RL = experiment: as above
Protocol: (§3) Cells are thawed from a liquid nitrogen preserved state. Once cells have been expanded and divide at their expected doubling times, screening begins. Cells are seeded in growth media in either black 1536-well or 384-well tissue culture treated plates. Cells are then equilibrated in assay plates via centrifugation and placed in incubators attached to the Dosing Modules at 37° C. for 24 hours before treatment. […] These Tzero (To) plates are read using ultra-sensitive luminescence on Envision plate readers (Perkin Elmer). Treated assay plates are incubated with compound for 72 hours. After 72 hours, plates are developed for endpoint analysis using ATPLite. All data points are collected via automated processes, quality controlled and analyzed using Zalicus software.
(§4) where T is treated cell count and V is untreated (vehicle) cell count (at 72 hours). I ranges from 0% (when T=V) to 100% (when T=0). […] The measure of effect in the experiment can be the inhibition of cellular response relative to the untreated level (vehicle alone). […] The inhibition ranges from 0% at the untreated level to 100% when T=0. Inhibition levels are negative for agents that actually increase levels. Other effect measures, such as an activity ratio r=T/V may be more appropriate for some assays. When activity ratios (e.g, fold increase over stimulated control) are being used, the effect can be measured using an induction 1=ln(T/V). With this definition, all effect expressions are the same as for inhibition.
(§5) Growth Inhibition (GI) is used as a measure of cell viability. […] A GI reading of 100% represents complete growth inhibition—T72 compound-treated and T0 vehicle signals are matched. […] A GI reading of 200% represents complete death of all cells in the culture well. Compounds reaching an activity plateau of GI 200% are considered cytotoxic. GI is calculated by applying the following test and equation:
(§6) Combination analysis data were collected in a 6×6 dose matrix. Synergy is calculated by comparing a combination's response to those of its single compound, against the drug-with-itself dose-additive reference model. Deviations from dose additivity may be assessed visually on an isobologram or numerically with a Combination Index (CI). […] Additive effect is CI=1.0. […] Antagonistic effect is CI>1.0.
(§7) To measure combination effects in excess of Loewe additivity, a scalar measure to characterize the strength of synergistic interaction termed the Synergy Score is devised. The Synergy Score is calculated as:
(§8) The fractional inhibition for each component agent and combination point in the matrix is calculated relative to the median of all vehicle-treated control wells. The Synergy Score equation integrates the experimentally-observed activity volume at each point in the matrix in excess of a model surface numerically derived from the activity of the component agents using the Loewe model for additivity. Additional terms in the Synergy Score equation (above) are used to normalize for various dilution factors used for individual agents and to allow for comparison of synergy scores across an entire experiment. The inclusion of positive inhibition gating or an Idata multiplier removes noise near the zero effect level, and biases results for synergistic interactions at that occur at high activity levels.
(§9) Loewe Volume (Loewe Vol) is used to assess the overall magnitude of the combination interaction in excess of the Loewe additivity model. Loewe Volume is particularly useful when distinguishing synergistic increases in a phenotypic activity (positive Loewe Volume) versus synergistic antagonisms (negative Loewe Volume). […] This model defines additivity as a non-synergistic combination interaction where the combination dose matrix surface should be indistinguishable from either drug crossed with itself.

Jeko-1 = experiment: as above; settings: combination with Compound 1
Protocol: as §3, §4, §5, §6, §7, §8, §9

[1] = system: Compound 1-resistant SU-DHL-4 clones; experiment: CTG (Cell Titer Glo) IC50, Compound 1-resistant clones; format: cell-based; settings: Compound 1-resistant clones versus control cells, FIG. 10
Protocol: The DMSO stock for each compound was diluted to 5 mM or 1 mM with DMSO. A 1:1000 dilution was performed into the plated cells (10 uL) for a final of 1 uM or 5 uM (final DMSO […]). Cells were counted 2 times per week and cell densities were adjusted back to 2.5×10^5 c/mL as needed. Media/Compound was replenished as needed and Media/Compound was replaced 1× per week. Compound treatment lasted for 28 days. Compound was washed out for 1 week and cells were subsequently used in assays to determine resistance after 4 weeks of treatment.
The cell line pool was treated with compound for an additional 28 days prior to subcloning. Altogether, the cell line pool was under selective pressure for a total of 8 weeks.
Cell lines were subcloned at 3, 1, and 0.3 cells per well (cpw). 1:10 of conditioned medium (CM) was included in medium in addition to corresponding DMSO control or compound. During subcloning optimization experiments, the SU-DHL-4 cell line could only be subcloned in the presence of 1:10 conditioned medium. […]
All cell lines subcloned grew out. […] Once expanded in a 24 well plate, the 12 clones per cell line were evaluated for viability by flow using the Dead_Live kit (Invitrogen #L23101).
Clones for parent, DMSO and Compound 1-R cell lines were selected based on their P1 vs P2 distribution determined by FSCH vs SSCH scatter plot. […]

CLL = experiment: Clinical trial, Compound 1 monotherapy in a patient with CLL; format: in vivo, human; settings: one CLL patient
[2] = combination with CAL-101, OCT-Ly3, Example 2
[3] = combination with Cmpd 1, OCT-Ly3, Example 2
[4] = combination with Compound 1, OCI-Ly3, 72 h
[5] = combination with CAL-101, Example 2
[6] = combination with Cmpd 1, Example 2
[7] = combination with Compound 1, 72 h

## C[C@@H]1C[C@H]2[C@@H]3CCC4=CC(=O)C=C[C@]4(C)[C@@]3(F)[C@@H](O)C[C@]2(C)[C@@]1(O)C(=O)CO [dexamethasone, (8S,9R,10S,11S,13S,14S,16R,17R)-9-Fluoro-11,17-dihydroxy-17-(2-hydroxyacetyl)-10,13,16-trimethyl-6,7,8,9,10,11,12,13,14,15,16,17-dodecahydro-3H-cyclopenta[a]phenanthren-3-one]
HH
  CI50 growth inhibition: S (S=0.01 to <0.5)
  CI50 inhibition: S (S=0.01 to <0.5)
  Synergy Score growth inhibition: A3 (A3=>3)
  Synergy Score inhibition: A3 (A3=>3)
SUDHL6
  synergy of the combination: significant synergy
OCI-Ly3; [2]
  Synergy Score growth inhibition: A1 (A1=0.0001 to <1)
  Synergy Score inhibition: A1 (A1=0.0001 to <1)
OCI-Ly3; [3]
  CI50 growth inhibition: W (W=≥1)
  Synergy Score growth inhibition: A1 (A1=0.0001 to <1)
  Synergy Score inhibition: A1 (A1=0.0001 to <1)
OCI-Ly3; [4]
  CI50 growth inhibition: U (U=0.7 to <1)
  Synergy Score growth inhibition: A1 (A1=0.0001 to <1)
  Synergy Score inhibition: A1 (A1=0.0001 to <1)
TMD8; [5]
  CI50 growth inhibition: S (S=0.01 to <0.5)
  CI50 inhibition: S (S=0.01 to <0.5)
  Synergy Score growth inhibition: A3 (A3=>3)
  Synergy Score inhibition: A3 (A3=>3)
TMD8; [6]
  CI50 growth inhibition: T (T=0.5 to <0.7)
  CI50 inhibition: S (S=0.01 to <0.5)
  Synergy Score growth inhibition: A3 (A3=>3)
  Synergy Score inhibition: A3 (A3=>3)
TMD8; [7]
  CI50 growth inhibition: U (U=0.7 to <1)
  CI50 inhibition: S (S=0.01 to <0.5)
  Synergy Score growth inhibition: A3 (A3=>3)
  Synergy Score inhibition: A3 (A3=>3)
OCI-Ly7; [7]
  CI50 growth inhibition: S (S=0.01 to <0.5)
  CI50 inhibition: S (S=0.01 to <0.5)
  Synergy Score growth inhibition: A3 (A3=>3)
  Synergy Score inhibition: A3 (A3=>3)
Farage; [7]
  CI50 growth inhibition: U (U=0.7 to <1)
  CI50 inhibition: T (T=0.5 to <0.7)
  Synergy Score growth inhibition: A3 (A3=>3)
  Synergy Score inhibition: A3 (A3=>3)
RL; [7]
  CI50 growth inhibition: S (S=0.01 to <0.5)
  CI50 inhibition: S (S=0.01 to <0.5)
  Synergy Score growth inhibition: A3 (A3=>3)
  Synergy Score inhibition: A3 (A3=>3)
Jeko-1
  CI50 growth inhibition: U (U=0.7 to <1)
  CI50 inhibition: S (S=0.01 to <0.5)
  Synergy Score growth inhibition: A3 (A3=>3)
  Synergy Score inhibition: A3 (A3=>3)

## C[C@H](Nc1ncnc2[nH]cnc12)c1cc2cccc(Cl)c2c(=O)n1-c1ccccc1 [Compound 1, (S)-3-(1-((9H-purin-6-yl)amino)ethyl)-8-chloro-2-phenylisoquinolin-1(2H)-one]
[1]
  average IC50 for inhibition of the resistant cells versus control cells: higher
CLL; 25 mg bid, C5D1, ALC=257 at C1D1
  Absolute lymphocyte count (ALC): 134
CLL; 25 mg bid, after C7 (cycle 7), STK11 copy loss detected at C5D1
  clinical response: progressed
CLL; monotherapy 25 mg bid, C3D1 (cycle 3, day 1)
  clinical response: partial response
OCI-Ly7; combination with Dexamethasone
  CI50 growth inhibition: S (S=0.01 to <0.5)
  CI50 inhibition: S (S=0.01 to <0.5)
  Synergy Score growth inhibition: A3 (A3=>3)
  Synergy Score inhibition: A2 (A2=1 to <3)
OCI-Ly7; combination with LEE011
  CI50 growth inhibition: U (U=0.7 to <1)
  CI50 inhibition: W (W=≥1)
  Synergy Score growth inhibition: A2 (A2=1 to <3)
  Synergy Score inhibition: A1 (A1=0.0001 to <1)
OCI-Ly7; combination with PCI-32765
  CI50 growth inhibition: W (W=≥1)
  Synergy Score growth inhibition: A2 (A2=1 to <3)
  Synergy Score inhibition: A1 (A1=0.0001 to <1)
OCI-Ly7; combination with PD-0332991
  CI50 growth inhibition: T (T=0.5 to <0.7)
  CI50 inhibition: S (S=0.01 to <0.5)
  Synergy Score growth inhibition: A2 (A2=1 to <3)
  Synergy Score inhibition: A2 (A2=1 to <3)
Farage; combination with Dexamethasone
  CI50 growth inhibition: U (U=0.7 to <1)
  CI50 inhibition: S (S=0.01 to <0.5)
  Synergy Score growth inhibition: A3 (A3=>3)
  Synergy Score inhibition: A3 (A3=>3)
Farage; combination with LEE011
  CI50 growth inhibition: W (W=≥1)
  CI50 inhibition: W (W=≥1)
  Synergy Score growth inhibition: A1 (A1=0.0001 to <1)
  Synergy Score inhibition: A1 (A1=0.0001 to <1)
Farage; combination with PCI-32765
  CI50 growth inhibition: S (S=0.01 to <0.5)
  CI50 inhibition: S (S=0.01 to <0.5)
  Synergy Score growth inhibition: A3 (A3=>3)
  Synergy Score inhibition: A3 (A3=>3)
Farage; combination with PD-0332991
  CI50 growth inhibition: T (T=0.5 to <0.7)
  CI50 inhibition: S (S=0.01 to <0.5)
  Synergy Score growth inhibition: A2 (A2=1 to <3)
  Synergy Score inhibition: A2 (A2=1 to <3)
RL; combination with Dexamethasone
  CI50 growth inhibition: T (T=0.5 to <0.7)
  CI50 inhibition: T (T=0.5 to <0.7)
  Synergy Score growth inhibition: A3 (A3=>3)
  Synergy Score inhibition: A3 (A3=>3)
RL; combination with LEE011
  CI50 growth inhibition: T (T=0.5 to <0.7)
  CI50 inhibition: U (U=0.7 to <1)
  Synergy Score growth inhibition: A2 (A2=1 to <3)
  Synergy Score inhibition: A1 (A1=0.0001 to <1)
RL; combination with PCI-32765
  CI50 growth inhibition: S (S=0.01 to <0.5)
  CI50 inhibition: S (S=0.01 to <0.5)
  Synergy Score growth inhibition: A2 (A2=1 to <3)
  Synergy Score inhibition: A2 (A2=1 to <3)
RL; combination with PD-0332991
  CI50 growth inhibition: S (S=0.01 to <0.5)
  CI50 inhibition: S (S=0.01 to <0.5)
  Synergy Score growth inhibition: A2 (A2=1 to <3)
  Synergy Score inhibition: A2 (A2=1 to <3)
